In assay [1] the test system is ischemia-reperfusion induced renal damage. As to the kind of experiment: Mouse model of ischemic acute renal failure (ischemia-reperfusion). The assay is classed as in vivo. On the procedure:
FIGS. 1a-d—RTA 402 reduces renal damage following ischemia-reperfusion. Mice were administered RTA 402 at 2 mg/kg or simply the vehicle (sesame oil) daily by oral gavage beginning on […]. On Day 0, a clamp was placed on the left renal artery for 17 minutes and then removed to induce ischemia-reperfusion. (FIG. 1a) On Day 1, blood was collected from animals that were subjected to clamping and “sham” control animals that underwent surgery without clamping of the renal artery. Blood urea nitrogen (BUN) levels were measured as a surrogate for renal damage. (FIGS. 1b-d) Sections of kidneys from RTA 402-treated or vehicle-treated mice were scored for histological damage (FIGS. 1b & 1d) and inflammation (FIG. 1c). (FIG. 1d) Black arrows (vehicle group) show two of many severely damaged tubules in the outer medulla. Red arrows (RTA 402 group) show two of many undamaged tubules in the outer medulla.
In a mouse model of ischemic acute renal failure, the renal artery is clamped for approximately twenty minutes. After this time, the clamp is removed and the kidney is reperfused with blood. Ischemia-reperfusion results in renal damage and decreased renal function which can be assessed by blood urea nitrogen (BUN) levels, which become elevated following renal damage. As shown in FIGS. 1a-d, surgically-induced ischemia-reperfusion increased BUN levels by approximately 2-fold.

A short description of assay [2]: Serum creatinine in toxicology study, monkeys. The assay is classed as in vivo, cynomolgus monkeys. Conditions: oral, once daily for 28 days. On the procedure:
FIGS. 3a-d—RTA 402 reduces serum creatinine levels in monkeys, dogs, and rats. (FIG. 3a) Cynomolgus monkeys were administered RTA 402 orally at the indicated doses once daily for 28 days. The percent reduction of serum creatinine on Day 28 in RTA 402-treated monkeys relative to vehicle-treated control monkeys is shown. (FIG. 3b) RTA 402 was administered orally to beagle dogs at the indicated doses daily for three months. Control animals received vehicle (sesame oil). The percent change in serum creatinine at the three-month time point relative to baseline is shown. (FIG. 3c) Sprague-Dawley rats were administered RTA 402 orally at the indicated doses once daily for a period of one month. The percent reduction of serum creatinine at study completion in RTA 402-treated rats relative to vehicle-treated control rats is shown. (FIG. 3d) Sprague-Dawley rats were administered the amorphous form of RTA 402 orally at the indicated doses once daily for a period of three months. The percent reduction of serum creatinine at study completion in RTA 402-treated rats relative to vehicle-treated control rats is shown. […] For example, a reading of −15 on this axis indicates a 15% reduction in serum creatinine.
Serum creatinine has been measured in several animal species treated with RTA 402 in the course of toxicology studies. […]

Assay [3] relates to cisplatin-induced renal toxicity. As to the kind of experiment: Rat cisplatin-induced acute renal injury. It counts as in vivo. The procedure:
FIGS. 2a-c—RTA 402 reduces cisplatin-induced renal toxicity. Rats were administered RTA 402 at 10 mg/kg or simply the vehicle (sesame oil) every day by oral gavage beginning on Day −1. On Day 0, the rats received an intravenous injection of cisplatin at 6 mg/kg. Blood samples were drawn on the indicated days and the levels of creatinine (FIG. 2a) and blood urea nitrogen (BUN) (FIG. 2b) were measured as markers of renal damage. A statistically significant difference was observed between the vehicle-treated and RTA 402-treated groups on Day 3 (creatinine) and Day 5 (creatinine and BUN). (FIG. 2c) Less damage to the proximal tubules is observed in RTA 402-treated animals compared to vehicle-treated animals.
In another model of acute renal injury, rats were injected intravenously with the antineoplastic agent cisplatin. In humans, nephrotoxicity is a dose-limiting side effect of treatment with cisplatin. Cisplatin-induced damage to the proximal tubules is thought to be mediated by increased inflammation, oxidative stress, and apoptosis (Yao et al., 2007). Rats treated with a single dose of cisplatin at 6 mg/kg developed renal insufficiency as measured by increased blood levels of creatinine and BUN.

A further assay relates to RAW264.7 macrophages. As to the kind of experiment: Cell viability, WST-1 reagent. The assay is classed as cell-based. The following applies: Mus musculus, RAW264.7 (20 ng/ml IFNγ). Background: Formazan colour is commonly taken as a measure of viable cells.
Assay [4] relates to IFNγ-induced NO production in RAW264.7 macrophages. In words: Suppression of IFNγ-induced NO production (Griess reagent system). It counts as cell-based. Conditions: Mus musculus; RAW264.7, pre-treated 2 hours, then 20 ng/ml IFNγ for 24 hours. Background: The Griess reaction detects nitrite, a stable product of nitric oxide.
Setting [5] is: 10 mg/kg oral gavage daily from one day prior to cisplatin 6 mg/kg i.v.

pIC50: −log10 of the molar value.

As for `COC(=O)[C@]12CCC(C)(C)C[C@H]1[C@H]1C(=O)C=C3[C@@]4(C)C=C(C#N)C(=O)C(C)(C)[C@@H]4CC[C@@]3(C)[C@]1(C)CC2` [RTA 402, methyl-2-cyano-3,12-dioxooleana-1,9-dien-28-oic acid], the “Histological measures of kidney damage and inflammation” value in assay [1] (2 mg/kg orally once daily) was “significantly improved”. For the same compound, the “BUN levels relative to vehicle-treated animals” value in assay [1] (2 mg/kg orally once daily beginning two days prior to surgery, p<0.01) is given as “significantly reduced”. Moreover, the “Serum creatinine levels relative to control animals” value in assay [2] is “Significant reductions”. Besides, the “Extent of proximal tubule damage (histological evaluation) compared to vehicle” value in assay [3] (10 mg/kg oral gavage daily) is given as “improvement”. In assay [3] (setting [5]), the “Blood levels of BUN” value is “significantly reduced” and the “Blood levels of creatinine” value is reported as “significantly reduced”. The compound further gave a negative-log IC50 (pIC50) in the assay with RAW264.7 macrophages of 7.10. In assay [4], the pIC50 was 8.66.

As usually defined, the pIC50 is the negative decadic logarithm of the IC50, by convention in mol/L.

Values taken from patent US8455544B2, “Synthetic triterpenoids and methods of use in the treatment of disease” (Reata Pharmaecuticals, Inc., priority 2008, dated 2013).
